Values joined by “and” are separate entries in the source; they are usually repeats but may differ in a detail not shown here. Equal values may be shown once. Where a name gives a salt, the structure may show the parent alone. Read-outs that look alike come from different tables or passages of the source.
Assays:
NpsA [1] = type: biochemical, Klebsiella oxytoca; details: read-out: appKi
NpsA [2] = type: binding, Klebsiella oxytoca; details: pH 6.8
K. oxytoca = type: cell-based, Klebsiella oxytoca
[3] = system: K. oxytoca strain MIT 10-5243; type: cell-based, Klebsiella oxytoca; details: read-out: IC50 for inhibition of tilivalline production
NpsA [4] = type: biochemical, Klebsiella oxytoca
NpsB = type: biochemical, Klebsiella oxytoca; details: pH 8
NpsA (wt-NpsA) [5] = target: T1, NpsA (wt-NpsA) (Klebsiella oxytoca, UniProt A0A291NW45); experiment: biochemical; details: n = 3
NpsA (wt-NpsA) [6] = target: T1, NpsA (wt-NpsA); experiment: biochemical; type: binding; details: n = 3
Nc1c(O)cccc1C(=O)O = experiment: purified protein, by the assay type; details: pH 8.0
[7] = system: Nc1ncnc2c1ncn2[C@@H]1O[C@H](COP(=O)(O)OP(=O)(O)OP(=O)(O)O)[C@@H](O)[C@H]1O; experiment: purified protein, by the assay type; details: pH 8.0
O=C(O)c1cccc(O)c1 = experiment: purified protein, by the assay type; details: pH 8.0

T1 sequence (A0A291NW45 1-506): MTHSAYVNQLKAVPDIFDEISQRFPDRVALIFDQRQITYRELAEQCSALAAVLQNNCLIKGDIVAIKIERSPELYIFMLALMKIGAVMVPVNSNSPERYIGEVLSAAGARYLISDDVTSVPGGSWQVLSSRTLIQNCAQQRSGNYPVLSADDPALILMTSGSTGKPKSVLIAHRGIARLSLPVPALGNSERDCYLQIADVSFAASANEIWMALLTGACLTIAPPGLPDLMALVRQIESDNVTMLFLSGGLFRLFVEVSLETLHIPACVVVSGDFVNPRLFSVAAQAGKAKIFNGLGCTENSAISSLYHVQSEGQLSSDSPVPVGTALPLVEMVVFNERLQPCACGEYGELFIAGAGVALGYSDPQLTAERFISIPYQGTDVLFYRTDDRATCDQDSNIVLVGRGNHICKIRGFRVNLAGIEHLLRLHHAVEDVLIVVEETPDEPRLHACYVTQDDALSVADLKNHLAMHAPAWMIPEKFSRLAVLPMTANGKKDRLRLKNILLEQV
T1 sequence (A0A291NW67 1-76 partner): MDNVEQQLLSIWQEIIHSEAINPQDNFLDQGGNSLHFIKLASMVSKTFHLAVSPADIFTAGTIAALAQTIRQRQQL

Question: With “5′-[N-(2-Amino-3-hydroxybenzoyl)sulfamoyl]amino-5′-deoxyadenosine triethylammonium salt [Compound 5]” as the compound, how does the Ki (NpsA [1]) read?
Answer: Its Ki is 54 nM.

Question: What about the Kd (NpsA [2]) of the same compound?
Answer: Its Kd is 29 nM and 29.3 nM.

Question: What about the “growth inhibition of K. oxytoca” value (K. oxytoca) of the same compound?
Answer: Its value is “does not inhibit growth”.

Question: What does the source list for “5′-[N-(2-Aminobenzoyl)sulfamoyl]amino-5′-deoxyadenosine triethylammonium salt [Compound 9]”?
Answer: Ki (NpsA [1]): 1200 nM; Kd (NpsA [2]): 485 nM

Question: “5′-[N-(3-Hydroxybenzoyl)sulfamoyl]amino-5′-deoxyadenosine triethylammonium salt [Compound 8]” was tested. Which Ki (NpsA [1]) did it give?
Answer: The Ki was 230 nM.

Question: What about the Kd (NpsA [2]) of the same compound?
Answer: Its Kd is 112 nM.

Question: What about the IC50 [3] of the same compound?
Answer: Its IC50 is 29000 nM.

Question: And the “growth inhibition of K. oxytoca” value (K. oxytoca)?
Answer: The value was “no observable growth inhibition”.

Question: For Nc1c(O)cccc1C(=O)O [3-Hydroxyanthranilic acid], which “kcat (apparent)” value (NpsA [4]; pH 8) is on record?
Answer: Its value is 0.78 ± 0.01 s⁻¹.

Question: And the Km (NpsA [4]; read-out: KM (apparent), pH 8)?
Answer: Its Km is 63 µM.

Question: With O=C(O)c1cccc(O)c1 [3-Hydroxybenzoic acid] as the compound, how does the “fold decrease in specificity constant (kcat/KM)” value (NpsA [4]) read?
Answer: Its value is 200 fold.

Question: And the “kcat (apparent)” value (NpsA [4]; pH 8)?
Answer: The value was 0.35 ± 0.07 s⁻¹.

Question: And the Km (NpsA [4]; read-out: KM (apparent), pH 8)?
Answer: The Km was 4000 µM.

Question: With Nc1ncnc2c1ncn2[C@@H]1O[C@H](COP(=O)(O)OP(=O)(O)OP(=O)(O)O)[C@@H](O)[C@H]1O [ATP, adenosine triphosphate] as the compound, how does the “kcat (apparent)” value (NpsA [4]; pH 8) read?
Answer: Its value is 0.82 ± 0.01 s⁻¹.

Question: And the Km (NpsA [4]; read-out: KM (apparent), pH 8)?
Answer: Its Km is 15 µM.

Question: And the “kcat (apparent)” value (NpsB)?
Answer: The value was 0.056 ± 0.002 s⁻¹.

Question: And the Km (NpsB; read-out: KM (apparent))?
Answer: The Km was 21 µM.

Question: Nc1ccccc1C(=O)O [Anthranilic acid] was tested. Which Km (NpsA [4]) did it give?
Answer: The Km was 854 µM.

Question: And the “fold decrease in specificity constant (kcat/KM)” value (NpsA [4])?
Answer: The value was 52 fold.

Question: What about the “kcat (apparent)” value (NpsA [4]; pH 8) of the same compound?
Answer: The value was 0.29 ± 0.01 s⁻¹.

Question: And the Km (NpsA [4]; read-out: KM (apparent), pH 8)?
Answer: The Km was 850 µM.

Question: With O=C(O)[C@@H]1CCCN1 [L-Proline] as the compound, how does the “kcat (apparent)” value (NpsB) read?
Answer: The value was 0.037 ± 0.002 s⁻¹.

Question: What does the source list for Nc1c(O)cccc1C(=O)NS(=O)(=O)NC[C@H]1O[C@@H](n2cnc3c(N)ncnc32)[C@H](O)[C@@H]1O [compound 5, 3-hydroxyanthraniloyl-AMS; 5′-[N-(2-Amino-3-hydroxybenzoyl)sulfamoyl]amino-5′-deoxyadenosine triethylammonium salt]?
Answer: Ki (NpsA (wt-NpsA) [5]): 54 nM; Kd (NpsA (wt-NpsA) [6]): 29.3 nM

Question: Which results are given for Nc1ncnc2c1ncn2[C@@H]1O[C@H](CNS(=O)(=O)NC(=O)c2cccc(O)c2)[C@@H](O)[C@H]1O [compound 8, 3-hydroxybenzoyl-AMS; 5′-[N-(3-Hydroxybenzoyl)sulfamoyl]amino-5′-deoxyadenosine triethylammonium salt]?
Answer: Ki (NpsA (wt-NpsA) [5]): 230 nM; Kd (NpsA (wt-NpsA) [6]): 112 nM

Question: For Nc1ccccc1C(=O)NS(=O)(=O)NC[C@H]1O[C@@H](n2cnc3c(N)ncnc32)[C@H](O)[C@@H]1O [compound 9, anthraniloyl-AMS; 5′-[N-(2-Aminobenzoyl)sulfamoyl]amino-5′-deoxyadenosine triethylammonium salt], which Ki (NpsA (wt-NpsA) [5]) is on record?
Answer: Its Ki is 1200 nM.

Question: And the Kd (NpsA (wt-NpsA) [6])?
Answer: The Kd was 485 nM.

Question: Which Km (Nc1c(O)cccc1C(=O)O) does the source give for NpsA (wt-NpsA) (Klebsiella oxytoca) here?
Answer: Its Km is “(6.3 ± 0.2) × 10^1 uM”.

Question: What about the kcat (Nc1c(O)cccc1C(=O)O) of the same compound?
Answer: The kcat was 0.78 ± 0.01 s⁻¹.

Question: And the kcat/Km (Nc1c(O)cccc1C(=O)O)?
Answer: Its kcat/Km is 18000 ± 1000 M⁻¹ s⁻¹.

Question: What about the Km [7] of the same compound?
Answer: The Km was “(1.5 ± 0.1) × 10^1 uM”.

Question: What about the kcat [7] of the same compound?
Answer: The kcat was 0.82 ± 0.01 s⁻¹.

Question: And the kcat/Km [7]?
Answer: The kcat/Km was 56000 ± 4000 M⁻¹ s⁻¹.

Question: And the Km (O=C(O)c1cccc(O)c1)?
Answer: Its Km is “(4.0 ± 0.9) × 10^3 uM”.

Question: And the kcat (O=C(O)c1cccc(O)c1)?
Answer: The kcat was 0.35 ± 0.07 s⁻¹.

Question: What about the kcat/Km (O=C(O)c1cccc(O)c1) of the same compound?
Answer: Its kcat/Km is 88 ± 26 M⁻¹ s⁻¹.
